Laboratory results from patent US20080249144A1, “Preventive or Therapeutic Agent for Chronic Inflammatory Lung Disease” (KAKEN PHARMACEUITICAL CO., LTD., priority 2004, published 2008).

Columns and labels:
human neutrophils = test: LTB4-induced human neutrophil migration (48-well modified Boyden chamber); format: cell-based
Procedure: Leukocytes were collected from human peripheral blood samples (20 mL of venous blood was taken by a doctor) were obtained from 4 healthy adults (male). They received sufficient information on the purpose of the experiment and gave informed consent in advance. An equivalent amount of 3% dextran (M.W. 208000) saline solution was added to the heparinized blood thus obtained and the mixture was kept to stand for one hour. Thereafter, the supernatant was collected and centrifuged at 150 g for 5 minutes at 4° C. The supernatant was discarded and the pellet was repeatedly twice haemolysed. To explain in detail, 4 mL of an ice-cooled 0.2% NaCl solution was added, quickly suspended and allowed to stand for 20 to 30 seconds. Thereafter, 4 mL of an ice-cooled 1.6% NaCl solution was added to the suspension solution to return the solution to the isotonic condition. After centrifugation was performed at 150 g for 5 minutes at 4° C., the same treatment was repeated. The cell pellet obtained was finally suspended in a buffer (Hank's solution containing 0.1% FBS) and subjected to an experiment.
This experiment was performed using a 48-well modified Boyden chamber (Neuro Probe). To explain in detail, the wells of the bottom plate of the chamber were filled with 25 μl of vehicle solution containing 10 nmol/L of LTB4. A polycarbonate filter (PVP-free, pore size: 3 μm) was placed on the bottom plate. The top plate of the chamber was mounted and each well of the upper plate was filled with 45 μL of a leukocyte suspension solution (1.0×10^6 cells/mL) prepared with the buffer. Immediately after that, 5 μL of a test substance (10 fold concentration of a final concentration) was added to the wells. […] The numbers of cells were counted in 4 visual fields (×400) per well and the average of them was regarded as the number of migrated cells. Each test substance was evaluated using 3 wells. The average value of these wells was calculated and regarded as the value of each substance.
The average and standard deviation of each group were calculated. […]

[1] = test system: PPE-induced pulmonary emphysema model; test: PPE-induced pulmonary emphysema model in mice; format: in vivo
Procedure: Eight-week old C57BL strain mice were anaesthetized with isoflurane. PPE (25 μg) was administered once to the lung through a cannula inserted into the trachea through the pharyngolarynx to induce a pulmonary damage. To a non-PPE administration group (normal group), saline was administered instead. In a preventive administration experiment (hereinafter referred to as a “preventive experiment”) of KP-496, drug effect was evaluated on inflammatory cells in BALF 2 days after PPE administration and by histopathological examination of the lung after 10 days. In a therapeutic administration experiment of KP-496 (hereinafter referred to as a “therapeutic experiment”), the drug effect was evaluated by histo-pathological examination of the lung and weight of the organs 14 days after PPE administration.
The medicament administration period was set from the PPE administration date to the day before autopsy in the preventive experiment and set from a predetermined day (KP-496A group: PPE administration date, KP-496B group: 3 days after PPE administration date, KP-496C group: 7 days after PPE administration date) to the day before autopsy in the therapeutic experiment. Inhalation administration of KP-496 was performed in the same manner as in Example 2. Furthermore, the normal group and the control group were allowed to spontaneously inhale saline, instead. A medicament for use in comparison, prednisolone, was orally administered in a dose of 5 mg/kg twice a day. A group consisted of 10 animals.
The animals were anaesthetized with pentobarbital and killed by exsanguination. Immediately after that, BAL of the right and left lungs was performed with 2 ml of saline. In the same manner as in Example 2, the total number of cells and the number of cells according to the cell type in the BALE were determined.
The lung was excised out from the animal killed by exsanguination in the same manner as in the above, the weight of the lung was measured. The lung was fixed in 10 vol % neutral buffered formalin solution. A pathological tissue sample was prepared in accordance in a general way. The degree of the damage of the lung tissue observed was evaluated by scoring in the same manner as in Example 2. Furthermore, the average of alveolar-space area of the entire lung tissue sample was computationally measured with image-processing software.
The average value and standard deviation of each group were calculated. Comparison between the normal group and the control group was performed by the Levene's test for equal variance and then, the t-test was performed depending on the results. To compare the control group and test substance administration groups, equal variance was first confirmed by the Levene's test and then multiple comparisons were performed in accordance with the Dunnett's test. Note that evaluation parameters with unequal variance and the damage score of the lung tissue were analyzed by nonparametric Mann-Whitney test. The significance level employed was […].

[2] = KP-496 concentration in the mouse lung tissue after inhalation; format: in vivo, mice; conditions: after 30 min inhalation of nebulized KP-496 solution (0.5 w/v %)
Procedure: Seven-week old C57BL-strain male mice were was used. The mouse was allowed to inhale nebulized KP-496 for 30 min. through a nasal cavity to the lung tissue in the same manner as in Example 2. After completion of the inhalation, the mouse was killed by exsanguination under anaesthesia with pentobarbital. Immediately after that, the lung was excised out, weighed and freezed at −80° C. to store. A 4-fold volume of phosphate buffer was added to the lung homogenized and measured with LC-MS. The number of animals was five.

[3] = 2 days after PPE, compared to control group
[4] = preventive experiment, 10 days after PPE

## CC(C)c1csc(COc2cccc(CN(CCCCNS(=O)(=O)c3ccc(Cl)cc3)S(=O)(=O)c3ccccc3C(=O)O)c2)n1 [KP-496, 2-{N-[4-(4-chlorobenzenesulfonylamino)butyl]-N-{3-[(4-isopropyl-2-thiazolyl)methoxy]benzyl}}sulfamoylbenzoic acid]
Human neutrophils; 10 nmol/L LTB4, human leukocytes, 1.5 hours
  suppression of LTB4-induced cell migration, concentration dependence: suppressed the cell migration in a concentration dependent manner
Human neutrophils; test substance 1 μmol/L, 10 nmol/L LTB4
  suppression of LTB4-induced neutrophil migration: significantly suppressed
[1]; 2 days after PPE administration, preventive experiment
  total number of cells in BALF: 3.1±0.8 ×10^5 cells
[1]; [3]
  number of eosinophils in BALF: lower values than in the control group
  number of macrophages in BALF: significantly decreased
  number of neutrophils in BALF: significantly decreased
[1]; mouse, in vivo
  weights of the organs (liver, spleen and thymus gland): No effect was observed
[1]; [4]
  emphysema-like pathology of the lung (histopathology): the pathologic lesion was localized and mild
  increase in lung weight: significantly suppressed
[1]; preventive experiment, 10 days after PPE, compared with control group
  damage score of the lung: significantly decreased
[1]; preventive experiment, compared to control
  increase of the average of the alveolar-space area: significantly suppressed
[1]; therapeutic experiment, 14 days after PPE, despite difference of the administration initiation date
  lung weight: lower values than the control group
[1]; therapeutic experiment, 14 days after PPE, each of the groups (start day 0, 3 or 7)
  damage score of the lung: significantly decreased
[1]; therapeutic experiment, administration started from PPE administration date
  lung weight, difference to control group: a significant difference was observed
[1]; therapeutic experiment, each of the groups (start day 0, 3 or 7)
  increase of the average of the alveolar-space area: significantly suppressed
[2]
  content of KP-496 in murine lung: 418 ± 114 ng
